According to patent US11260100B2, “Compositions targeting the interaction domain between p27Kip1 and Brk and methods of use thereof to inhibit p27 Y phosphorylation and cdk4 activity” (The Research Foundation for the State University of New York, priority 2014, dated 2022):

How the values were obtained:
MB 231 (TNBC) = experiment: Palbociclib sensitivity of breast cancer line; type: cell-based; conditions: Homo sapiens; MB 231, moderate-responder
[1] = test system: MCF-7 inducible ALT cells; experiment: Mouse xenograft model, MCF7-ALT tumors; type: in vivo, NOD/SCID mice; conditions: day 17; start volume 200 mm3; Palbociclib 100 mg/kg daily gavage, doxycycline 0.1 mg/ml in drinking water
Protocol: FIG. 14: ALT slows tumor growth in animals, and ALT and PD dual treatment causes tumor regression. MCF-7 inducible ALT cells were injected into the 4th mammary gland of NOD/SCID mice. Tumors were allowed to develop to a volume of 200 mm3, before treatment. Vehicle: daily gavage with PBS. PD: Daily gavage of Palbociclib 100 mg/kg. Doxy: 0.1 mg/ml doxycycline added to the drinking water to allow continuous uptake and induction of ALT in the human cancer cells. Doxy+PD: Daily gavage of Palbociclib 100 mg/kg and 0.1 mg/ml doxycycline added to the drinking water. Vehicle treated animals rapidly progressed and by 17 days, tumor volumes were >3000 mm PD treatment slowed down tumor growth but by day 17, tumors were >2500. […] However, dual ALT and PD (doxy/PD) treatment, caused tumor regression by […] (e.g., from 200 mm3 down to 0-40 mm3), by day 5, which was durable up to day 19.
NP-ALT was added to cell media in the absence of fetal bovine serum for 6 hours. This media was removed and replaced with FBS+media, and cells were allowed to recover for 2 days, at which time, cell counts were determined. Counts were standardized to the proliferation seen in the NO FBS untreated control. • Expression in vivo. […] Tumor volume was monitored every other day using digital calipers. […] Doxy+PD: Daily gavage of Palbociclib 100 mg/kg and 0.1 mg/ml doxycycline added to the drinking water. • Quantitative RT-PCR. […]

CC(=O)c1c(C)c2cnc(Nc3ccc(N4CCNCC4)cn3)nc2n(C2CCCC2)c1=O [PD0332991]
IC50 (MB 231 (TNBC)): 400 nM | tumor volume [1]: > 2500 mm3
